Measurements from US20090325863A1, “Somatostatin analogs and IGF-I inhibition for breast cancer prevention” (priority 2008, published 2009).
“Also recorded” adds a separate entry of the source. Marks after values point to notes of the source that are not given here. *1 amine or outer side, *2 acyl side, *3 side chain or, on linkers, in order; H or OH if unused. Where a SMILES comes first, the peptide text is derived from it. Side-chain parts run from the residue outwards. [ ]: non-standard residue; d: D form. The star is where a group is joined. Ethylenediamine = C(CN[*:2])N[*:1]; Hyp = O=C(O)[C@@H]1C[C@@H](O)CN1; Phg = N[C@H](C(=O)O)c1ccccc1; CO = O=C([*:1])[*:2]; Bn = c1ccc(C*)cc1

Legend:
[1] = tested on: mast cells in mammary glands; experiment: Mast cells and mammary development in normally developing rats treated from day 21 to 28; assay type: in vivo, rat; conditions: for Mast cell density stromal / Mast cell density around glands: 28 day old rats treated from day 21, 3 animals; for Mast cell density stromal: normal 3.5 ± 0.8; for Mast cell density around glands: normal 11.5 ± 1.6
Source text: (§1) We have found for the first time that mast cells play a role in normal mammary development. Mast cells appear around developing mammary gland structures in rats. […] The same animals when they were 21 days old were given SOM230. […] The mast cells are found directly around the developing glands in the stromal compartment.
Overall, the number of mast cells/mm^2 was reduced by SOM230 treatment, as per TABLE 7 below. Mast cells surrounding glands and those elsewhere in the stromal compartment were both reduced.

[2] = tested on: mammary hyperplasia induced by hGH and E2; experiment: Mammary hyperplasia model induced by hGH and E2, counts in histological sections; assay type: in vivo, rat; conditions: for Mild# (mild hyperplasia): GH + E2 control 4.2 ± 0.6, E2 1.9 ± 0.2; for Moderate# (moderate hyperplasia): GH + E2 control 5.0 ± 0.7, E2 0; for Florid# (florid hyperplasia): GH + E2 control 9.6 ± 0.1, E2 0; for Total# (total number of glands): hypophysectomized, oophorectomized female rats, hGH 600 μg + E2, 7 days, GH + E2 control 71.9 ± 5.4, E2 42.2 ± 1.4; for Florid#: GH + E2 control 10 ± 0.7
Source text: To test whether SOM230, a drug that inhibits IGF-I action on the breast, was effective, we implemented a model of hyperplasia and then determined whether the hyperplasia could be inhibited by SOM230. We administered human growth hormone (600 mcg in alzet pumps) for a week, and gave this together with estradiol (an estrogen). At the end of 7 days florid hyperplasia developed. Mammary hyperplasia was modeled by treating hypophysectomized, oophorectomized female rats with high doses human growth hormone (hGH) (600 μg in Alzet pumps) and follicular phase concentrations of estradiol (E2) administered in silastic capsules for 7 days. In the absence of hGH, these animals would not undergo mammary development. In animals receiving E2 alone, there was virtually no hyperplasia. When hGH was added to E2 there were more glands (42.2±1.4 vs. 71.9±5.4, E2 vs. E2+hGH, respectively). There was no florid hyperplasia with E2 treatment. When hGH was given also, 26.6% of the glands were hyperplastic, with 50% of those being floridly hyperplastic, 7% moderate hyperplasia and 5.9% mild hyperplasia. […] This is shown in histological sections (FIG. 1), graphically (FIG. 2) and in tabular form below (TABLE 1).
Background: Antiestrogens or aromatase inhibitors are used for breast cancer chemoprevention. These treatments cause unpleasant side effects including hot flashes and vaginal dryness. We have previously shown that IGF-I is required to permit estrogen and progesterone action in the mammary gland. […] Menopausal symptoms would not likely to occur with SOM230 since estrogen is not lowered. Material and Methods: We have approached this issue in several ways. 1) We developed a model of hyperplasia in hypophysectomized and oophorectomized female rats. Hyperplasia was induced by treatment with 600 mcg hGH and follicular phase concentrations of estradiol. Hyperplasia was assessed histologically in sections of mammary gland. 2) To assess translatability to humans we assessed cell proliferation and apoptosis in normal human breast from reduction mammoplasties and samples of usual hyperplasia. 3) We also determined availability of SST receptors in samples of atypical ductal hyperplasia and DCIS, and 4) We have begun to determine whether SOM230 will prevent hyperplasia in humans at risk for breast cancer as it does in rats.
The degree of hyperplasia was analyzed in 3 histological sections at different levels in 3 test animals given GH+E2. The different types of hyperplasia were counted. For example, the total mean number of ducts was 88.3. Of those ducts, there were 19.7 or 22.3% of total ducts that were hyperplastic. The breakdown was a mean of 10 ducts with florid hyperplasia (lumen is distended and mostly obliterated by epithelial cells), a mean of 5.3 ducts with moderate hyperplasia (an increase in cell layers to >4 cells thick), and a mean of 4.4 characterized as mild hyperplasia (no more than 4 cell thickness).
There were 4 additional treatment groups and one E2 treated control group.

mammary development = conditions: rats; Ruan et al (2006); cited from earlier work
[3] = tested on: pYIRS-1 (phosphorylated IRS-1); experiment: pYIRS-1 staining in glands and mast cells of normally developing rats; assay type: in vivo, rat; conditions: 28 day old female rats treated from day 21
Source text: as §1
That these mast cells are directly stimulated by IGF-I is supported by the observation that phosphorylated IRS-1 was reduced in mast cells on exposure to SOM230. The action of SOM230 in mammary gland is therefore one of IGF-I action inhibition. […] The one on the right panel is from an animal treated with SOM230. Not only was pYIRS-I reduced in glands but mast cells were reduced as well.

VEGF = VEGF immunostaining in mammary glands of normally developing rats; assay type: in vivo, rat; conditions: 28 day old rats treated from day 21; gland cells and mast cells
Source text: (§2) They were found in both gland cells and mast cells.

[4] = tested on: Ki67 positive cells in mammary gland; experiment: Cell proliferation by Ki67 immunostaining in mammary gland, hGH+E2 model; assay type: in vivo, rat; conditions: for % Ki67 positive cells, Normal gland / % Ki67 positive cells, DH structure Mod + mild: 3 animals; for % Ki67 positive cells, Normal gland: hGH + E2 control 5.1 ± 0.1; for % Ki67 positive cells, DH structure Mod + mild: hGH + E2 control 22.5 ± 1.6 (P < 0.05); for cell proliferation / Ki67 staining (in words): hGH+E2 model versus hGH+E2 control
Procedure: The histological sections were also analyzed for cell proliferation by Ki67 immunostaining and for apoptosis by TUNEL. Twenty five percent of cells in areas of florid hyperplasia were stained for Ki67. […] When the glands were normal and not hyperplastic, only 5.1% stained for Ki67. […] The immunostaining for Ki67 can be seen in FIG. 3.
We next determined the effects of the various treatment regimens on cell proliferation as assessed by Ki67 immunostaining. […] The percent Ki67 positive cells is depicted in TABLE 4 below.

Factor VIII = Factor VIII immunostaining in mammary glands of normally developing rats; assay type: in vivo, rat; conditions: 28 day old rats treated from day 21; gland cells and mast cells
Source text: as §2

SSTR-5 = SSTR-5 (Homo sapiens, UniProt P35346); conditions: cited from earlier work
Sequence of SSTR-5 (P35346 whole entry, species assumed): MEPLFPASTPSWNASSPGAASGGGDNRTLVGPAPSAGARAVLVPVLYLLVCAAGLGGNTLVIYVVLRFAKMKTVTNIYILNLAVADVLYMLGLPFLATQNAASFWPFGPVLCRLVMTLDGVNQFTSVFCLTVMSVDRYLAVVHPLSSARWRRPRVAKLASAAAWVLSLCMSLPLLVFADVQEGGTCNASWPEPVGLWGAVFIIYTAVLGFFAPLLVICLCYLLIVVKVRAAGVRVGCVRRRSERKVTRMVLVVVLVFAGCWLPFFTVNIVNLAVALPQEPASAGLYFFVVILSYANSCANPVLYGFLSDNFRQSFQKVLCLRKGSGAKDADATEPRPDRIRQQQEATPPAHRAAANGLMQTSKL

Compound: NCCCC[C@@H]1NC(=O)[C@@H](Cc2c[nH]c3ccccc23)NC(=O)[C@H](c2ccccc2)NC(=O)[C@@H]2C[C@@H](OC(=O)NCCN)CN2C(=O)[C@H](Cc2ccccc2)NC(=O)[C@H](Cc2ccc(OCc3ccccc3)cc2)NC1=O [SOM230] (cyclo([Hyp]([CO-Ethylenediamine])[Phg][dW]KY(Bn)F))
- Mast cell density stromal [1]: reduced
- Mast cell density stromal ([1]; listed as SOM): 1.1 ± 0.3^d MC#/1 mm^2
- Mast cell density around glands [1]: reduced
- Mast cell density around glands ([1]; listed as SOM): 3.7 ± 0.7^b MC#/1 mm^2
- micro vessel density ([1]; normally developing glands versus SOM230 treated): greater in glands that were developing normally
- mammary development ([1]; normally developing rats treated from day 21 to 28): inhibit mammary development
- number of areas of florid hyperplasia ([2]; Example 3, from 18.9±1.3 with hGH and E2 (p<0.001)): 7.5±0.5
- Mild# (mild hyperplasia) ([2]; Table 1, 7 days): 3.0±0.4
- Mild# (mild hyperplasia) ([2]; Table 1, 7 days, listed as SOM): 3.0 ± 0.4
- Moderate# (moderate hyperplasia) ([2]; Table 1, 7 days): 3.8±0.4
- Moderate# (moderate hyperplasia) ([2]; Table 1, 7 days, listed as SOM): 3.8 ± 0.4
- Florid# (florid hyperplasia) ([2]; Table 1, 7 days): 0.8±0.2
- Florid# (florid hyperplasia) ([2]; Table 1, 7 days, listed as SOM): 0.8 ± 0.2
- DH# (hyperplastic structures) ([2]; Table 1, 7 days, GH + E2 control 18.9 ± 1.3, E2 1.9 ± 0.2): 7.5 ± 0.5^b
- Total# (total number of glands) ([2]; Table 1): 46.0±2.8
- Total# (total number of glands) ([2]; Table 1, listed as SOM): 46.0 ± 2.8
- Total# ([2]; Table 3, SOM230 30 mcg/h/kg, Octreotide 30 mcg/hr/kg, Tamoxifen 30 mg/21 day release pellet, GH + E2 control 88.3 ± 6.3): 61.4 ± 7.0
- Mild# ([2]; Table 3, same doses, GH + E2 control 4.4 ± 0.6): 3.3 ± 0.3
- Moderate# ([2]; Table 3, same doses, GH + E2 control 5.3 ± 0.6): 3.8 ± 0.4
- Florid# ([2]; Table 3, same doses): 1.7
- Florid# ([2]; Table 3, same doses, listed as SOM): 1.7 ± 0.6
- DH# ([2]; Table 3, same doses, GH + E2 control 19.7 ± 1.5): 8.8 ± 0.7^b
- hyperplasia / breast hyperplastic lesions (in words) ([2]; given together with hGH and estradiol, 7 days): hyperplasia was significantly inhibited; also recorded: reduction in the number and size of breast hyperplastic lesions; also recorded: reduction in hyperplasia
- IRS-1 phosphorylation in the mammary gland (mammary development): reduction in IRS-1 phosphorylation
- mammary development (mammary development): prevents mammary development
- pYIRS-1 in glands and mast cells [3]: inhibited; also recorded: reduced
- expression of VEGF (immunostaining) (VEGF): reduced expression
- % Ki67 positive cells, Normal gland [4]: no significant reduction
- % Ki67 positive cells, Normal gland ([4]; listed as SOM): 4.3 ± 0.4%
- % Ki67 positive cells, DH structure Mod + mild [4]: 14.2%
- % Ki67 positive cells, DH structure Mod + mild ([4]; listed as SOM): 14.2 ± 2.5%
- cell proliferation / Ki67 staining (in words) [4]: reduction in cell proliferation; also recorded: decrease in Ki67 staining
- cell proliferation / Ki67 staining (in words) ([4]; listed as SOM 230): remarkable decrease in cell division
- expression of Factor VIII (immunostaining) (Factor VIII): reduced expression
- affinity for SSTR-5 (SSTR-5): has affinity
